This assay has as its target T1, recombinant human GR (Homo sapiens, UniProt P04150).
T1 construct: purchased Panvera/Invitrogen P2812 (kit P2893)
T1 sequence (P04150 1-777): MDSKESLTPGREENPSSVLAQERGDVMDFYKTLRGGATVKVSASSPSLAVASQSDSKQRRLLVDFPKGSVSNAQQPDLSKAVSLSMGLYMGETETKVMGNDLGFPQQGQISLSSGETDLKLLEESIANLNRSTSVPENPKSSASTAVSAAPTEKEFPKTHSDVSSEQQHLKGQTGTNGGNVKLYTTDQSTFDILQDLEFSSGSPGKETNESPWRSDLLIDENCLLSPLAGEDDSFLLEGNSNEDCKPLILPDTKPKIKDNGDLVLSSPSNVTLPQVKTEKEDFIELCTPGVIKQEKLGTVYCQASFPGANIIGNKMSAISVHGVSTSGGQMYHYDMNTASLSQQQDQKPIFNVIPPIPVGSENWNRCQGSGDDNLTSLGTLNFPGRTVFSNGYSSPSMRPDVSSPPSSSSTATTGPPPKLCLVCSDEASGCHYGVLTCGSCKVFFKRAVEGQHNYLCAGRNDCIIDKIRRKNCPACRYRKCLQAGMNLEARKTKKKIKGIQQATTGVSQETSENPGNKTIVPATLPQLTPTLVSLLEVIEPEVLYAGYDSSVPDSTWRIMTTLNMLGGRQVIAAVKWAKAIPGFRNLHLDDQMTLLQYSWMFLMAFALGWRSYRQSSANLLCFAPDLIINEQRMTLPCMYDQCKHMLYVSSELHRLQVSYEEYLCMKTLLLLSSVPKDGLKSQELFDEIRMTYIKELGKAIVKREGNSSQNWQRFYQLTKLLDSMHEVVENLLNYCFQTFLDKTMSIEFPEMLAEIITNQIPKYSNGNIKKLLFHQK
Put plainly: Human Glucocorticoid Receptor (GR) fluorescence polarization assay. It is filed as binding. As to conditions: GS Red tracer, 2 hours at room temperature. The procedure:
Human Glucocorticoid Receptor (GR) Assay
The assay is based on a commercial kit from Panvera/Invitrogen (Part number P2893). The assay technology is fluorescence polarization. The kit utilises recombinant human GR (Panvera, Part number P2812), a Fluoromone™ labelled tracer (GS Red, Panvera, Part number P2894) and a Stabilizing Peptide 10× (Panvera, Part number P2815). The GR and Stabilizing Peptide reagents are stored at −70° C. while the GS Red is stored at −20° C. Also included in the kit are 1M DTT (Panvera, Part number P2325, stored at −20° C.) and GR Screening buffer 10× (Panvera, Part number P2814, stored at −70° C. initially but once thawed stored at room temperature). Avoid repeated freeze/thaws for all reagents. The GR Screening buffer 10× comprises 100 mM potassium phosphate, 200 mM sodium molybdate, 1 mM EDTA and 20% DMSO.
Test compounds (1 μL) and controls (1 μL) in 100% DMSO were added to black polystyrene 384-well plates (Greiner low volume black flat-bottom, part number 784076). 0% control was 100% DMSO and 100% control was 10 μM Dexamethasone. […] The plate was read in an Analyst plate reader (LJL Biosystems/Molecular Devices Corporation) or other similar plate reader capable of recording fluorescence polarization (excitation wavelength 530 nm, emission wavelength […] and a dichroic mirror at 561 nm). The IC50 values were calculated using XLfit model 205.
A general note: In fluorescence polarisation assays a small probe gives low polarisation when free and higher when bound to something large.

By IC50 is commonly meant the concentration that gives 50% inhibition. Consider `CC1=CC(C)(C)N(Cc2ccc(Cl)cc2)c2ccccc21` [CAS120109-44-6], for which the IC50 turned out to be 240 nM.
